Several values for one entry are separate records, joined by “and”; a condition that tells them apart may be missing. Identical values can stand only once.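 These data come from cells grown in 96-well plates and exposed to compound for 48 hours at five concentrations. At the GI50, growth is halved. At the TGI there is no net growth.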
Key:
Assay in all cases: DTP human tumour cell line panel, 48 h
M14 melanoma = system: M14 melanoma
EKVX NSCLC = system: EKVX NSCLC
SNB-19 CNS = system: SNB-19 CNS
HS 578T breast = system: HS 578T breast
RPMI-8226 leukemia = system: RPMI-8226 leukemia
PC-3 prostate = system: PC-3 prostate
786-0 renal = system: 786-0 renal
CAKI-1 renal = system: CAKI-1 renal
HOP-62 NSCLC = system: HOP-62 NSCLC
SK-MEL-5 melanoma = system: SK-MEL-5 melanoma

Row | Structure (SMILES) | TGI (M14 melanoma) | TGI (EKVX NSCLC) | TGI (SNB-19 CNS) | TGI (HS 578T breast) | TGI (RPMI-8226 leukemia) | TGI (PC-3 prostate) | TGI (786-0 renal) | TGI (CAKI-1 renal) | TGI (HOP-62 NSCLC) | TGI (SK-MEL-5 melanoma) | GI50 (M14 melanoma) | GI50 (EKVX NSCLC) | GI50 (SNB-19 CNS) | GI50 (HS 578T breast) | GI50 (RPMI-8226 leukemia) | GI50 (PC-3 prostate) | GI50 (786-0 renal) | GI50 (CAKI-1 renal) | GI50 (HOP-62 NSCLC) | GI50 (SK-MEL-5 melanoma)
1 | CCc1ncnc2cc(OCC3CO3)c(OC)cc12 (centres undefined) | 23.8 µM | > 100 µM | > 100 µM | 42 µM | 5.38 µM | > 100 µM | 20.7 µM | > 100 µM | 38.7 µM | 21.9 µM | – | – | – | – | – | – | – | – | – | –
2 | Cc1cc(S(N)(=O)=O)c(S/C(=N\Nc2ccc([N+](=O)[O-])cc2)c2ccc3ccccc3c2)cc1Cl | > 100 µM | 64.3 µM | > 100 µM | 8.86 µM | > 100 µM | 27.4 µM | 42.9 µM | 48.8 µM | 68.5 µM | 36.8 µM | 44.1 µM | 17.9 µM | 67.5 µM | 2.19 µM | 37.7 µM | 14.2 µM | 18.7 µM | 17.5 µM | 22.8 µM | 16.5 µM
3 | CC/C=C\C[C@H](O)C/C=C1/C(=O)C=C[C@@H]1C/C=C\CCCC(=O)NC | 4.75 µM | 15.2 µM | 20.9 µM | 55.2 µM | 6 µM | 4.79 µM | 3.6 µM | 4.08 µM | 5.33 µM | 2.98 µM | 1.76 µM | 3.71 µM | 6.91 µM | 5.24 µM | 0.957 µM | 1.95 µM | 1.81 µM | 1.38 µM | 2.3 µM | 1.62 µM
4 | C[n+]1c(/C=C/c2ccc(/C=N/NC(=O)c3ccc(C(=O)N/N=C/c4ccc(/C=C/c5cn6ccccc6[n+]5C)cc4)cc3)cc2)cn2ccccc21 | > 100 µM | > 100 µM | > 100 µM | > 100 µM | > 100 µM | > 100 µM | > 100 µM | > 100 µM | > 100 µM | > 100 µM | – | – | – | – | – | – | – | – | – | –
5 | O=Nc1c(O)c2ccccc2c2ccccc12 | 1.6 µM | 3.32 µM | 2.55 µM | 5.65 µM | > 21.9 µM | 2.73 µM | 7.04 µM | 9 µM | 2.41 µM | 1.77 µM | 0.446 µM | 1.7 µM | 1.13 µM | 2 µM | 1.2 µM | 0.633 µM | 2.84 µM | 2.95 µM | 0.768 µM | 0.56 µM
6 | C[C@@](O)(/C=C/[C@H]1CC=CC(=O)O1)[C@@H](C[C@@H](O)\C=C/C=C\C=C\CO)OP(=O)(O)O | 2.69 µM | 65.6 µM and 49.1 µM | 92.6 µM and 184 µM | 22.6 µM | 8.5 µM | 12.4 µM | 20.2 µM | 4.66 µM | 29.5 µM and 12.1 µM | 21.8 µM and 27 µM | – | 14.7 µM | 20.7 µM | – | – | – | – | – | 10.1 µM | 7.89 µM

From PubChem BioAssay (NCI)
